Experimental data from PubChem BioAssay AID602446 (National Center for Advancing Translational Sciences (NCATS), 2012).

Tested on: Caco-2 permeability efflux ratio
Test: High Content Assay for Compounds that inhibit the Assembly of the Perinucleolar Compartment: Efflux Ratio
Text: The perinucleolar compartment (PNC) is a non-membrane-bound nuclear subdomain that is associated with but structurally distinct from the nucleolus. The PNC is a heritable trait, in which the number of PNCs per cell in daughter cells often mimics that of their mother cells. The PNC is heterogeneous in shape, is stable through interphase, disassembles during mitosis, and reassembles in early G1. The PNC is concentrated with newly synthesized RNA polymerase III (pol III) RNAs (MRP RNA, RNAse P H1 RNA, hY RNAs[hY1, 2, 5], Alu RNA, and SRP [7SL] RNA) and RNA binding proteins (nucleolin, PTB, CUG-BP, KSRP, Raver1, Raver2, and Rod).
In collaboration between Sui Huang from Northwestern University and the NCGC, a high content assay was developed and screened. The hits were then tested in follow-up assays. High-content tumor cell migration assays in 3-dimensional extracellular matrices are powerful tools for modeling and understanding the biology of this critical step in the process of metastasis. However, most of the available methods are not amenable to the throughput required by studies of comparative pharmacology or small scale screening. […]
8. […] The T0, LY and T90, LY plates are read by FlexStation 3 at excitation of 485 nm and emission of 535 nm to determine LY permeability. […]

Question: Which efflux ratio does the source give for `N=c1c2c(-c3ccccc3)c(-c3ccccc3)n(Cc3ccccc3)c2ncn1C1CCC(O)CC1` (stereo unspecified) here?
Answer: The efflux ratio was 11.
